# From patent EP3168211A1, “PHARMACEUTICAL CO-CRYSTALS OF NICLOSAMIDE” (Westfälische Wilhelms-Universität Münster, priority 2015, dated 2017)
# Key:
# [1] = for factor: equilibrium solubility relative to pristine NCL; for factor / Solubility at 37° C (24 h) in 40% isopropanol-water mixture: 37°C, 24 h, 40% isopropanol-water; for Solubility at 37° C (24 h) in 40% isopropanol-water mixture: equilibrium solubility, shake-flask, sample normalized to 50 mg of NCL in 2.5 mL; for increase of the equilibrium solubility: result in words, versus pristine NCL
# Protocol: (§1) Solubility Experiments: The quantification of NCL was validated using a Phenomenex Gemini-NX HPLC-UV/vis and a C18 column (250 mm x 4.6 mm, 5 mm particle diameter). […] The considered concentration range of known NCL was in between 0.5-100 µg/mL. The flow rate and the injection volume was set to 1.0 mL/min and 50 µL, respectively. The limit of detection was 0.1 µg/mL and the limit of quantification 0.5 µg/mL. The absorbance was measured at 254 nm. The equilibrium solubility was determined in 40% isopropanol-water medium using a shake-flask method. Accordingly, each solid sample containing 50 mg of NCL was stirred for 24 h in 2.5 mL of the medium at 37°C, and the absorbance was measured at 337 nm. The concentration of the saturated solution was calculated after 24 h which is referred to as the equilibrium solubility of the stable solid form.
# (§2) The corresponding equilibrium solubility of NCL, its novel co-crystals and some reference compounds was determined following established procedures. […] In order to allow for a better comparability of the determined solubility values, the amount of NCL actually present in the tested co-crystals was normalized to 50 mg per sample, therefore adjusting the initially weighted sample accordingly.
# [2] = solubility factor relative to NCL reported by P. Sanphui et al.; weights not normalized to the amount of NCL; cited from earlier work
# [3] = male Sprague-Dawley rats; cited from earlier work
# physchem = details: 37 °C, aqueous with cosolvent or surfactant or cyclodextrin, thermodynamic from solid
# Protocol: as §1, §2
Molecule,factor [1],Solubility at 37° C (24 h) in 40% isopropanol-water mixture [1],factor* [2],increase of the equilibrium solubility [1],oral bioavailability [3],solubility at 24 h (physchem)
Niclosamide - nicotinamide [NCL-NA],1.3,114.45 mg/L,1.2,–,–,–
Niclosamide - isonicotinamide [NCL-IA],1.3,113.45 mg/L,1.7,–,–,–
Niclosamide - acetamide [NCL-AA-I],1.4,–,–,moderate increase,–,–
"O=C(Nc1ccc([N+](=O)[O-])cc1Cl)c1cc(Cl)ccc1O [NCL, 2',5-dichloro-4'-nitrosalicylanilide]",–,–,–,–,10%,87.2 µg/mL
Niclosamide - isoniazide [NCL-IN],–,–,–,moderate increase,–,–
